# According to patent publication US9409884B2 (Rigel Pharmaceuticals, Inc., priority 2012, dated 2016):
# Biological target: AMPK
# Assay: AMPK activation, enzyme-linked immunosorbent assay
# Type: biochemical
# Conditions: Table 13, compounds of Table 6
# In short: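 AMPK activation by test compounds was measured by enzyme-linked immunosorbent assay.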
row,Structure (SMILES),EC50 [nM]
1,"CS(=O)(=O)c1ccc(CN2CCN(C(=O)c3ccc4oc(C(=O)NC5CCN(Cc6ccc(OC(F)F)cc6)CC5)cc4c3)CC2)cc1 [Compound 6-101, N-(1-(4-(difluoromethoxy)benzyl)piperidin-4-yl)-5-(4-(4-(methylsulfonyl)benzyl)piperazine-1-carbonyl) benzofuran-2-carboxamide]",100 to 1000
2,CS(=O)(=O)c1ccc(CN2CCN(C(=O)c3ccc4oc(C(=O)NC5CCN(Cc6ccc(C#N)cc6)CC5)cc4c3)CC2)cc1F [Compound 6-102],< 100
3,"Cc1cc(CN2CCN(C(=O)c3ccc4oc(C(=O)NC5CCN(Cc6ccc(C#N)cc6)CC5)cc4c3)CC2)ccc1S(C)(=O)=O [Compound 6-103, N-(1-(4-cyanobenzyl)piperidin-4-yl)-5-(4-(3-methyl-4-(methylsulfonyl)benzyl)piperazine-1-carbonyl) benzofuran-2-carboxamide]",< 100
4,"N#Cc1ccc(CN2CCC(NC(=O)c3cc4cc(C(=O)N5CCN(Cc6ccc(S(=O)(=O)C7CC7)cc6)CC5)ccc4o3)CC2)cc1 [Compound 6-104, N-(1-(4-cyanobenzyl)piperidin-4-yl)-5-(4-(4-(cyclopropylsulfonyl)benzyI)piperazine-1-carbonyl) benzofuran-2-carboxamide]",< 100
5,"CS(=O)(=O)c1ccc(CN2CCN(C(=O)c3ccc4oc(C(=O)NC5CCN(Cc6ccc(C#N)cc6)CC5)cc4c3)CC2)cc1C(F)(F)F [Compound 6-105, N-(1-(4-cyanobenzyl)piperidin-4-yl)-5-(4-(4-(methylsulfonyl)-3-(trifluoromethyl)benzyl)piperazine-1-carbonyl) benzofuran-2-carboxamide]",< 100
6,"COc1ccc(N2CCN(C(=O)c3ccc4oc(C(=O)NC5CCN(Cc6ccc(C#N)cc6)CC5)cc4c3)CC2)cc1 [Compound 6-106, N-(1-(4-cyanobenzyl)piperidin-4-yl)-5-(4-(4-methoxyphenyl)piperazine-1-carbonyl)benzofuran-2-carboxamide]",< 100
7,"N#Cc1ccc(CN2CCC(NC(=O)c3cc4cc(C(=O)N5CCN(c6ccc(C#N)cc6)CC5)ccc4o3)CC2)cc1 [Compound 6-107, N-(1-(4-cyanobenzyl)piperidin-4-yl)-5-(4-(4-cyanophenyl)piperazine-1-carbonyl)benzofuran-2-carboxamide]",< 100
8,"CC(C)S(=O)(=O)c1ccc(N2CCN(C(=O)c3ccc4oc(C(=O)NC5CCN(Cc6ccc(C#N)cc6)CC5)cc4c3)CC2)cc1 [Compound 6-108, N-(1-(4-cyanobenzyl)piperidin-4-yl)-5-(4-(4-(isopropylsulfonyl)phenyl)piperazine-1-carbonyl) benzofuran-2-carboxamide]",< 100
9,"N#Cc1ccc(CN2CCC(NC(=O)c3cc4cc(C(=O)N5CCN(c6ccc(C(=O)C7CC7)cc6)CC5)ccc4o3)CC2)cc1 [Compound 6-109, N-(1-(4-cyanobenzyl)piperidin-4-yl)-5-(4-(4-(cyclopropanecarbonyl)phenyl)piperazine-1-carbonyl)benzofuran-2-carboxamide]",< 100
10,"CN(C)C(=O)c1ccc(N2CCN(C(=O)c3ccc4oc(C(=O)NC5CCN(Cc6ccc(C#N)cc6)CC5)cc4c3)CC2)cc1 [Compound 6-110, N-(1-(4-cyanobenzyl)piperidin-4-yl)-5-(4-(4-(dimethylcarbamoyl)phenyl)piperazine-1-carbonyl) benzofuran-2-carboxamide]",100 to 1000
11,"CS(=O)(=O)c1ccc(CN2CCN(C(=O)c3ccc4oc(C(=O)NC5CCN(Cc6ccc(C#N)cc6)CC5)cc4c3)CC2)cc1OC(F)(F)F [Compound 6-111, N-(1-(4-cyanobenzyl)piperidin-4-yl)-5-(4-(4-(methylsulfonyl)-3-(trifluoromethoxy)benzyl)piperazine-1-carbonyl) benzofuran-2-carboxamide]",100 to 1000
12,"CS(=O)(=O)c1ccc(CN2CCN(C(=O)c3ccc4oc(C(=O)NC5CCN(Cc6ccc(C#N)cc6)CC5)cc4c3)CC2)cc1Cl [Compound 6-112, 5-(4-(3-chloro-4-(methylsulfonyl)benzyl)piperazine-1-carbonyl)-N-(1-(4-cyanobenzyl)piperidin-4-yl)benzofuran-2-carboxamide]",< 100
13,"CS(=O)(=O)c1ccc(O[C@H]2CCN(C(=O)c3ccc4oc(C(=O)NC5CCN(Cc6ccc(C#N)cc6)CC5)cc4c3)C[C@@H]2F)cc1 [Compound 6-113, N-(1-(4-cyanobenzyl)piperidin-4-yl)-5-((3,4-trans)-3-fluoro-4-(4-(methylsulfonyl)phenoxy)piperidine-1-carbonyl) benzofuran-2-carboxamide]",< 100
14,"COc1ccc(CN2CCC(NC(=O)c3cc4cc(C(=O)N5CC[C@H](Oc6ccc(S(C)(=O)=O)cc6)[C@@H](F)C5)ccc4o3)CC2)cc1 [Compound 6-114, 5-((3,4-trans)-3-fluoro-4-(4-(methylsulfonyl)phenoxy)piperidine-1-carbonyl)-N-(1-(4-methoxybenzyl)piperidin-4-yl) benzofuran-2-carboxamide]",< 100
15,"CS(=O)(=O)c1ccc(O[C@H]2CCN(C(=O)c3ccc4oc(C(=O)NC5CCN(Cc6ccc(OC(F)(F)F)cc6)CC5)cc4c3)C[C@@H]2F)cc1 [Compound 6-115, 5-((3,4-trans)-3-fluoro-4-(4-(methylsulfonyl)phenoxy)piperidine-1-carbonyl)-N-(1-(4-(trifluoromethoxy)benzyl)piperidin-4-yl)benzofuran-2-carboxamide]",< 100
16,"N#Cc1ccc(CN2CCC(NC(=O)c3cc4cc(C(=O)N5CCN(c6ccc(C(F)(F)F)cc6)CC5)ccc4o3)CC2)cc1 [Compound 6-116, N-(1-(4-cyanobenzyl)piperidin-4-yl)-5-(4-(4-(trifluoromethyl)phenyl)piperazine-1-carbonyl) benzofuran-2-carboxamide]",< 100
17,"N#Cc1ccc(CN2CCC(NC(=O)c3cc4cc(C(=O)N5CCN(c6cc(C(F)(F)F)cc(C(F)(F)F)c6)CC5)ccc4o3)CC2)cc1 [Compound 6-117, 5-(4-(3,5-bis(trifluoromethyl)phenyl)piperazine-1-carbonyl)-N-(1-(4-cyanobenzyl)piperidin-4-yl)benzofuran-2-carboxamide]",1000 to 10000
18,"N#Cc1ccc(CN2CCC(NC(=O)c3cc4cc(C(=O)N5CCN(c6ccc(Cl)cc6Cl)CC5)ccc4o3)CC2)cc1 [Compound 6-118, N-(1-(4-cyanobenzyl)piperidin-4-yl)-5-(4-(2,4-dichlorophenyl)piperazine-1-carbonyl)benzofuran-2-carboxamide]",< 100
19,"COc1ccc(CN2CCC(NC(=O)c3cc4cc(C(=O)N5CCN(c6ccc(C(F)(F)F)cc6)CC5)ccc4o3)CC2)cc1 [Compound 6-119, N-(1-(4-methoxybenzyl)piperidin-4-yl)-5-(4-(4-(trifluoromethyl)phenyl)piperazine-1-carbonyl) benzofuran-2-carboxamide]",< 100
20,"COc1ccc(CN2CCC(NC(=O)c3cc4cc(C(=O)N5CCN(c6cc(C(F)(F)F)cc(C(F)(F)F)c6)CC5)ccc4o3)CC2)cc1 [Compound 6-120, 5-(4-(3,5-bis(trifluoromethyl)phenyl)piperazine-1-carbonyl)-N-(1-(4-methoxybenzyl)piperidin-4-yl)benzofuran-2-carboxamide]",< 100
21,"COc1ccc(CN2CCC(NC(=O)c3cc4cc(C(=O)N5CCN(c6ccc(Cl)cc6Cl)CC5)ccc4o3)CC2)cc1 [Compound 6-121, 5-(4-(2,4-dichlorophcnyl)piperazine-1-carbonyl)-N-(1-(4-methoxybenzyl)piperidin-4-yl)benzofuran-2-carboxamide]",< 100
22,"N#Cc1ccc(CN2CCC(NC(=O)c3cc4cc(C(=O)N5CCC(S(=O)(=O)c6ccc(F)cc6)CC5)ccc4o3)CC2)cc1 [Compound 6-122, N-(1-(4-cyanobenzyl)piperidin-4-yl)-5-(4-(4-fluorophenylsulfonyl)piperidine-1-carbonyl) benzofuran-2-carboxamide]",100 to 1000
23,"CS(=O)(=O)c1ccc(CN2CCN(C(=O)c3ccc4oc(C(=O)NC5CCN(Cc6ccc(C#N)cc6)CC5)cc4c3)CC2)cc1 [Compound 6-123, N-(1-(4-cyanobenzyl)piperidin-4-yl)-5-(4-(4-(methylsulfonyl)benzyl)piperazine-1-carbonyl) benzofuran-2-carboxamide]",< 100
24,"N#Cc1ccc(CN2CCC(NC(=O)c3cc4cc(C(=O)N5CCC(Oc6ccc(S(=O)(=O)C(F)(F)F)cc6)CC5)ccc4o3)CC2)cc1 [Compound 6-124, N-(1-(4-cyanobenzyl)piperidin-4-yl)-5-(4-(4-(trifluoromethylsulfonyl)phenoxy)piperidine-1-carbonyl)benzofuran-2-carboxamide]",< 100
25,"COc1ccc(-c2cnn(C3CCN(C(=O)c4ccc5oc(C(=O)NC6CCN(Cc7ccc(C#N)cc7)CC6)cc5c4)CC3)c2)cc1 [Compound 6-125, N-(1-(4-cyanobenzyl)piperidin-4-yl)-5-(4-(4-(4-methoxyphenyl)-1H-pyrazol-1-yl)piperidine-1-carbonyl)benzofuran-2-carboxamide]",< 100
26,"Cc1cc2oc(C(=O)NC3CCN(Cc4ccc(C#N)cc4)CC3)cc2cc1NC(=O)C1CCN(c2ccc(C#N)cc2)CC1 [Compound 6-126, N-(2-(1-(4-cyanobenzyl)piperidin-4-ylcarbamoyl)-6-methylbenzofuran-5-yl)-1-(4-cyanophenyl)piperidine-4-carboxamide]",< 100
27,"N#Cc1ccc(CN2CCC(NC(=O)c3cc4cc(C(=O)N5CCN(Cc6ccc(C(F)(F)F)cc6)CC5)ccc4o3)CC2)cc1 [Compound 6-127, N-(1-(4-cyanobenzyl)piperidin-4-yl)-5-(4-(4-(trifluoromethyl)benzyl)piperazine-1-carbonyl) benzofuran-2-carboxamide]",< 100
28,"N#Cc1ccc(CN2CCC(NC(=O)c3cc4cc(C(=O)N5CCN(Cc6ccc(S(=O)(=O)C(F)(F)F)cc6)CC5)ccc4o3)CC2)cc1 [Compound 6-128, N-(1-(4-cyanobenzyl)piperidin-4-yl)-5-(4-(4-(trifluoromethylsulfonyl)benzyl)piperazine-1-carbonyl)benzofuran-2-carboxamide]",< 100
29,"COc1ccc(CN2CCC(NC(=O)c3cc4cc(C(=O)N5CCN(Cc6ccc(C(F)(F)F)cc6)CC5)ccc4o3)CC2)cc1F [Compound 6-129, N-(1-(3-fluoro-4-methoxybenzyl)piperidin-4-yl)-5-(4-(4-(trifluoromethyl)benzyl)piperazine-1-carbonyl) benzofuran-2-carboxamide]",< 100
